Experimental data reported in the NIST ThermoML archive (doi:10.1021/acs.jced.7b00024).
Numbers after ± are expanded uncertainties.

Experiment: mean ionic activity coefficient (dimensionless); mn = molality of the nth substance listed, in mol/kg
Settings: 298.15 K, 100 kPa, Liquid, Potentiometry

[Cl-].[Cs+] [cesium chloride] + O
Settings | mean ionic activity coefficient
m1 = 0.0085 | 0.905 ± 0.041
m1 = 0.01 | 0.898 ± 0.041
m1 = 0.028 | 0.843 ± 0.041
m1 = 0.0297 | 0.84 ± 0.041
m1 = 0.0574 | 0.794 ± 0.041
m1 = 0.0706 | 0.778 ± 0.041
m1 = 0.0969 | 0.753 ± 0.041
m1 = 0.1497 | 0.715 ± 0.041
m1 = 0.1937 | 0.692 ± 0.041
m1 = 0.2985 | 0.652 ± 0.041
m1 = 0.3873 | 0.628 ± 0.041
m1 = 0.5981 | 0.588 ± 0.041
m1 = 0.6802 | 0.577 ± 0.041
m1 = 0.9033 | 0.552 ± 0.041
m1 = 1.073 | 0.538 ± 0.041
m1 = 1.504 | 0.513 ± 0.041
m1 = 1.56 | 0.51 ± 0.041
m1 = 2.106 | 0.492 ± 0.041
m1 = 2.152 | 0.491 ± 0.041
m1 = 2.947 | 0.477 ± 0.041
m1 = 3.008 | 0.476 ± 0.041
m1 = 3.944 | 0.472 ± 0.041
m1 = 4.002 | 0.471 ± 0.041
